Reference: ChEMBL document CHEMBL5357031, “Design and Synthesis of Cytotoxic Water-Soluble Rocaglaol Derivatives against HEL Cells by Inhibiting Fli-1” (J Nat Prod, 2024)
Where a name gives a salt, the structure may show the parent alone.

Legend:
HEL = experiment: Cytotoxicity against HEL cells assessed as cell growth inhibition incubated for 72 hrs by MTT assay; format: functional, cell-based, Homo sapiens
SW480 = experiment: Cytotoxicity against human SW480 cells assessed as cell growth inhibition incubated for 72 hrs by MTT assay; format: functional, cell-based; conditions: Homo sapiens, SW480, 72 h
MDA-MB-231 = experiment: cells; conditions: Homo sapiens, MDA-MB-231, 72 h
Description: Cytotoxicity against human MDA-MB-231 cells assessed as cell growth inhibition incubated for 72 hrs by MTT assay

Structure (SMILES)	IC50 (MDA-MB-231) [nM]	IC50 (HEL; Homo sapiens, HEL, 72 h) [nM]	IC50 (SW480) [nM]	IC50 (HEL; hel) [nM]
COc1cccc2c1C(=O)c1c(O)c3c(c(O)c1C2=O)C[C@@](O)(C(=O)CO)C[C@@H]3O[C@H]1C[C@H](N)[C@H](O)[C@H](C)O1 [DOXORUBICIN HYDROCHLORIDE]	500	240	120	
COc1cc(OC)c2c(c1)O[C@@]1(c3ccc(OCCn4cnc5ccccc54)cc3)[C@H](c3ccccc3)C[C@@H](O)[C@@]21O (racemic)	> 1000	> 1000	> 1000	
COc1cc(OC)c2c(c1)O[C@@]1(c3ccc(OCCCCCCCCN4CCCCC4)cc3)[C@H](c3ccccc3)C[C@@H](O)[C@@]21O (racemic)	> 1000	240	> 1000	
COc1cc(OC)c2c(c1)O[C@@]1(c3ccc(OC)c(CN4CCCCC4)c3)[C@H](c3ccccc3)C[C@@H](O)[C@@]21O (racemic)	> 1000	570	> 1000	
COc1cc(OC)c2c(c1)O[C@@]1(c3ccc(OCCCCCN4CCN(C)CC4)cc3)[C@H](c3ccccc3)C[C@@H](O)[C@@]21O (stereo in doubt; (-)-18o)				120
COc1cc(OC)c2c(c1)O[C@@]1(c3ccc(OCCN4CCCC4)cc3)[C@H](c3ccccc3)C[C@@H](O)[C@@]21O (racemic)	> 1000	> 1000	> 1000	
COc1cc(OC)c2c(c1)O[C@@]1(c3ccc(OCCCCCCCCN4CCN(C)CC4)cc3)[C@H](c3ccccc3)C[C@@H](O)[C@@]21O (racemic)	450	460	690	
COc1cc(OC)c2c(c1)O[C@@]1(c3ccc(OCCN(C)C)cc3)[C@H](c3ccccc3)C[C@@H](O)[C@@]21O (racemic)	> 1000	> 1000	> 1000	
COc1cc(OC)c2c(c1)O[C@@]1(c3ccc(OCCn4ccnc4)cc3)[C@H](c3ccccc3)C[C@@H](O)[C@@]21O (racemic)	> 1000	> 1000	> 1000	
COc1cc(OC)c2c(c1)O[C@@]1(c3ccc(OCCN4CCN(C)CC4)cc3)[C@H](c3ccccc3)C[C@@H](O)[C@@]21O (racemic)	> 1000	> 1000	> 1000	
COc1cc(OC)c2c(c1)O[C@@]1(c3ccc(OCCCCN4CCN(C)CC4)cc3)[C@H](c3ccccc3)C[C@@H](O)[C@@]21O (racemic)	220	380	650	
COc1cc(OC)c2c(c1)O[C@@]1(c3ccc(OC)c(CN4CCCC4)c3)[C@H](c3ccccc3)C[C@@H](O)[C@@]21O (racemic)	> 1000	670	> 1000	
COc1cc(OC)c2c(c1)O[C@@]1(c3ccc(OCCCCCN4CCCCC4)cc3)[C@H](c3ccccc3)C[C@@H](O)[C@@]21O (racemic)	190	180	> 1000	
COc1cc(OC)c2c(c1)O[C@@]1(c3ccc(OCCCCCCCCn4cccc4)cc3)[C@H](c3ccccc3)C[C@@H](O)[C@@]21O (racemic)	> 1000	> 1000	> 1000	
COc1cc(OC)c2c(c1)O[C@@]1(c3ccc(OCCCCN4CCCCC4)cc3)[C@H](c3ccccc3)C[C@@H](O)[C@@]21O (racemic)	660	460	> 1000	
COc1cc(OC)c2c(c1)O[C@@]1(c3ccc(OCCCCCN4CCN(C)CC4)cc3)[C@H](c3ccccc3)C[C@@H](O)[C@@]21O (stereo in doubt; (+)-18o)				> 1000
COc1cc(OC)c2c(c1)O[C@@]1(c3ccc(OCCN4CCOCC4)cc3)[C@H](c3ccccc3)C[C@@H](O)[C@@]21O (racemic)	> 1000	> 1000	> 1000	
COc1cc(OC)c2c(c1)O[C@@]1(c3ccc(OCCCCCn4ccnc4)cc3)[C@H](c3ccccc3)C[C@@H](O)[C@@]21O (racemic)	320	310	880	
COc1cc(OC)c2c(c1)O[C@@]1(c3ccc(OCCCCn4ccnc4)cc3)[C@H](c3ccccc3)C[C@@H](O)[C@@]21O (racemic)	650	560	> 1000	
COc1cc(OC)c2c(c1)O[C@@]1(c3ccc(OCCN4CCCCC4)cc3)[C@H](c3ccccc3)C[C@@H](O)[C@@]21O (racemic)	> 1000	> 1000	> 1000	

The next lines start with results.

IC50 (MDA-MB-231) [nM]	Structure (SMILES)	IC50 (HEL; Homo sapiens, HEL, 72 h) [nM]	IC50 (SW480) [nM]	IC50 (HEL; hel) [nM]
> 1000	CCN(CC)Cc1cc([C@@]23Oc4cc(OC)cc(OC)c4[C@]2(O)[C@H](O)C[C@H]3c2ccccc2)ccc1OC (racemic)	120	430	
> 1000	CCCCN(CCCC)Cc1cc([C@@]23Oc4cc(OC)cc(OC)c4[C@]2(O)[C@H](O)C[C@H]3c2ccccc2)ccc1O (racemic)	> 1000	> 1000	
> 1000	COc1cc(OC)c2c(c1)O[C@@]1(c3ccc(O)c(CN4CCCC4)c3)[C@H](c3ccccc3)C[C@@H](O)[C@@]21O (racemic)	> 1000	> 1000	
580	COc1cc(OC)c2c(c1)O[C@@]1(c3ccc(OCCCCN(C)C)cc3)[C@H](c3ccccc3)C[C@@H](O)[C@@]21O (racemic)	> 1000	> 1000	
> 1000	COc1cc(OC)c2c(c1)O[C@@]1(c3ccc(OC)c(CN(C)C)c3)[C@H](c3ccccc3)C[C@@H](O)[C@@]21O (racemic)	190	> 1000	
> 1000	CCCCN(CCCC)Cc1cc([C@@]23Oc4cc(OC)cc(OC)c4[C@]2(O)[C@H](O)C[C@H]3c2ccccc2)ccc1OC (racemic)	> 1000	> 1000	
210	COc1cc(OC)c2c(c1)O[C@@]1(c3ccc(OCCCCCCCCN(C)C)cc3)[C@H](c3ccccc3)C[C@@H](O)[C@@]21O (racemic)	220	> 1000	
> 1000	CCN(CC)Cc1cc([C@@]23Oc4cc(OC)cc(OC)c4[C@]2(O)[C@H](O)C[C@H]3c2ccccc2)ccc1O (racemic)	> 1000	> 1000	
470	CCN(CC)CCCCCCCCOc1ccc([C@@]23Oc4cc(OC)cc(OC)c4[C@]2(O)[C@H](O)C[C@H]3c2ccccc2)cc1 (racemic)	390	650	
550	CCN(CC)CCCCOc1ccc([C@@]23Oc4cc(OC)cc(OC)c4[C@]2(O)[C@H](O)C[C@H]3c2ccccc2)cc1 (racemic)	> 1000	> 1000	
370	COc1cc(OC)c2c(c1)O[C@@]1(c3ccc(OCCCCCN(C)C)cc3)[C@H](c3ccccc3)C[C@@H](O)[C@@]21O (racemic)	170	> 1000	
130	CCN(CC)CCCCCOc1ccc([C@@]23Oc4cc(OC)cc(OC)c4[C@]2(O)[C@H](O)C[C@H]3c2ccccc2)cc1 (racemic)	260	690	
> 1000	COc1cc(OC)c2c(c1)O[C@@]1(c3ccc(O)c(CN(C)C)c3)[C@H](c3ccccc3)C[C@@H](O)[C@@]21O (racemic)	> 1000	> 1000	
> 1000	COc1cc(OC)c2c(c1)O[C@@]1(c3ccc(O)c(CN4CCCCC4)c3)[C@H](c3ccccc3)C[C@@H](O)[C@@]21O (racemic)	> 1000	> 1000	
> 1000	COc1cc(OC)c2c(c1)O[C@@]1(c3ccc(O)c(CN4CCOCC4)c3)[C@H](c3ccccc3)C[C@@H](O)[C@@]21O (racemic)	490	> 1000	
